Common to all, as to assay type: functional
One test relates to A549. Description: Cytotoxicity against human A549 cells after 3 days by SRB assay. To be noted: A549, 72 h, read-out: ED50 (the source's name).
The next test relates to KB. Kind of test: Cytotoxicity against human KB cells after 3 days by SRB assay. To be noted: 72 h, read-out: ED50 (the source's name).
In the next test the test system is SK-BR-3. Kind of test: Cytotoxicity against human SK-BR-3 cells after 3 days by SRB assay. The settings on record: SK-BR-3, 72 h, read-out: ED50 (the source's name).
The next test relates to ZR-75-1. Kind of test: Cytotoxicity against human ZR-75-1 cells after 3 days by SRB assay. To be noted: ZR-75-1, 72 h, read-out: ED50 (the source's name).
Test [1] can be described thus: Cytotoxicity against human KBVIN cells after 3 days by SRB assay. To be noted: 72 h, read-out: ED50 (the source's name).
A further test deals with MDA-MB-231. Kind of test: Cytotoxicity against human MDA-MB-231 cells after 3 days by SRB assay. The settings on record: MDA-MB-231, 72 h, read-out: ED50 (the source's name).
The test system of a further test is DU-145. Kind of test: Cytotoxicity against human DU145 cells after 3 days by SRB assay. The settings on record: DU-145, 72 h, read-out: ED50 (the source's name).

16 compounds from ChEMBL document CHEMBL1156098, “Antitumor agents 269. Non-aromatic ring-A neotanshinlactone analog, TNO, as a new class of potent antitumor agents” (2009) can be followed below.

Each structure is given as a SMILES string.

Take `Cc1cccc2c1ccc1c3occ(C)c3c(=O)oc21`: the EC50 in the test on A549 was 54.2 µM; with KB, > 37 µM; in the test with SK-BR-3, 0.8 µM; with ZR-75-1, 1.1 µM; in test [1] it was > 37 µM; in the test on MDA-MB-231, 37.9 µM. In addition, the EC50 with DU-145 was 58.3 µM.
With `CCc1cccc2c(O)c(-c3occ(C)c3C(=O)O)ccc12`, the EC50 is 35.8 µM in the test with A549; 30.7 µM in the test with KB; 3.4 µM in the test with SK-BR-3; 1 µM in the test on ZR-75-1; 23.6 µM in test [1]; > 37 µM in the test on MDA-MB-231. The EC50 in the test on DU-145 was 29.4 µM.
On to `Cc1coc2c1c(=O)oc1c3c(ccc12)CCC3`, for which the EC50 with A549 is > 37 µM; in the test with KB, > 37 µM; in the test on SK-BR-3, > 60 µM; with ZR-75-1, > 37 µM; in test [1], > 37 µM; in the test on MDA-MB-231, > 37 µM. Moreover, the EC50 in the test on DU-145 is > 37 µM.
In the case of `Cc1coc2c1c(=O)oc1c3c(ccc12)CCCC3`, the EC50 in the test with A549 was 10.2 µM; in the test with KB, 31.5 µM; with SK-BR-3, 5.1 µM; in the test on ZR-75-1 it was 8.3 µM; in test [1], 10.2 µM; in the test on MDA-MB-231 it was 38.6 µM. Further, the EC50 with DU-145 is 32.7 µM.
Take `CCOc1c(-c2occ(C)c2CO)ccc2c1CCCC2(C)C`: the EC50 with A549 worked out at 22.9 µM; in the test with KB, 16.9 µM; in the test with SK-BR-3, 9.9 µM; in the test with ZR-75-1, 14.3 µM; in test [1], 15.3 µM; in the test with MDA-MB-231, 39.8 µM. In addition, the EC50 with DU-145 worked out at 17.5 µM.
Take `Cc1coc(-c2ccc3c(c2O)CCCC3(C)C)c1C(=O)O`: the EC50 in the test on A549 worked out at 3.3 µM; with KB, 4.7 µM; in the test with SK-BR-3 it was 0.7 µM; in the test on ZR-75-1 it was 1.7 µM; in test [1], 4.7 µM; in the test with MDA-MB-231 it was 24.7 µM. Further, in the test with DU-145, the EC50 amounted to 3 µM.
For `Cc1coc(-c2ccc3c(c2O)CCC3)c1C(=O)O`, the EC50 is 41.5 µM with A549; 31.4 µM in the test with KB; 30.2 µM with SK-BR-3; 30.2 µM with ZR-75-1; 30.2 µM in test [1]; 44.6 µM in the test on MDA-MB-231. For the same compound, in the test with DU-145, the EC50 came out at 38.4 µM.
As to `CCOCc1c(C)coc1-c1ccc2c(c1OC)CCCC2(C)C`, the EC50 turned out to be 22.9 µM in the test with A549; 21.6 µM with KB; 19.8 µM in the test on SK-BR-3; 19.8 µM with ZR-75-1; 16.5 µM in test [1]; 42.7 µM with MDA-MB-231. In addition, in the test on DU-145, the EC50 was 17.7 µM.
Consider `COc1c(-c2occ(C)c2C(=O)O)ccc2c1CCCC2(C)C`, for which the EC50 was 53.5 µM with A549; 43.3 µM with KB; 25.5 µM with SK-BR-3; 41.4 µM with ZR-75-1; 47.8 µM in test [1]; > 61 µM in the test with MDA-MB-231. In addition, in the test with DU-145, the EC50 was 34.1 µM.
Consider `Cc1coc(-c2ccc3c(c2O)CCCC3)c1C(=O)O`, for which the EC50 was 57 µM in the test on A549; 50 µM in the test on KB; 32.4 µM in the test with SK-BR-3; 21.7 µM in the test on ZR-75-1; 29.4 µM in test [1]; 73.5 µM with MDA-MB-231. Further, the EC50 with DU-145 turned out to be 40.4 µM.
For `COc1c(-c2occ(C)c2COC(C)=O)ccc2c1CCCC2(C)C`, the EC50 in the test on A549 was found to be 28.7 µM; with KB, 25.4 µM; in the test on SK-BR-3, 14 µM; in the test on ZR-75-1, 15.5 µM; in test [1] it was 24.9 µM; in the test with MDA-MB-231, 55.6 µM. In addition, the EC50 in the test with DU-145 was 16.7 µM.
As for `COc1c(-c2occ(C)c2CO)ccc2c1CCCC2(C)C`, the EC50 in the test on A549 turned out to be 23.3 µM; with KB, 25.3 µM; with SK-BR-3 it was 23.7 µM; in the test with ZR-75-1, 15 µM; in test [1], 21.7 µM; with MDA-MB-231, 28.3 µM. For the same compound, in the test on DU-145, the EC50 stood at 21.7 µM.
For `Cc1coc2c1c(=O)oc1c3c(ccc12)C(C)(C)CCC3`, the EC50 is 28 µM with A549; 30.5 µM in the test with KB; 35.8 µM in the test with SK-BR-3; 32.3 µM with ZR-75-1; 34.4 µM in test [1]; > 37 µM in the test on MDA-MB-231. Besides, in the test with DU-145, the EC50 is 31.9 µM.
Take `COC(=O)c1c(C)coc1-c1ccc2c(c1OC)CCCC2(C)C`: the EC50 is 61 µM in the test on A549; 53.4 µM in the test with KB; 27.1 µM in the test with SK-BR-3; 34.5 µM with ZR-75-1; 52.1 µM in test [1]; 61 µM in the test with MDA-MB-231. In the test with DU-145, the EC50 was found to be 33.5 µM.
On to `COCc1c(C)coc1-c1ccc2c(c1OC)CCCC2(C)C`, for which the EC50 in the test on A549 came out at 19.4 µM; in the test with KB, 11.5 µM; with SK-BR-3 it was 18.5 µM; in the test on ZR-75-1, 14.3 µM; in test [1], 20.1 µM; with MDA-MB-231, 47.8 µM. Also, in the test on DU-145, the EC50 worked out at 17.5 µM.
As for `Cc1coc(-c2ccc3c(c2O)CCCC3(C)C)c1CO`, the EC50 in the test with A549 came to 24.5 µM; with KB, 22 µM; with SK-BR-3, 21.3 µM; with ZR-75-1, 25.5 µM; in test [1], 19.9 µM; in the test on MDA-MB-231 it was 39.5 µM. In addition, the EC50 in the test on DU-145 came to 22.7 µM.
